Active and inactive are the calls of the source.
Key:
[1] = cells; assay type: functional, cell-based
[2] = Trypanosoma cruzi growth suppression in host cells – NIH3T3 host cells, beta-gal luminescence, confirmation (AID 2044); assay type: functional, cell-based;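 further: intracellular parasites grown in NIH/3T3 mouse fibroblasts as host cells; luminescent beta-galactosidase reporter signal from transgenic T. cruzi replicating inside host cells; inhibitors lower the luminescence signal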
[3] = cells; assay type: functional, cell-based; remark: listed apart in the source
[4] = target: T1, Heat shock factor protein 1 (Mus musculus, UniProt P38532); assay: enhancement of HSF1-driven luciferase signal – cell-based, NIH3T3, luminescence, dose retest, confirmation (AID 435004); assay type: functional;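 further: stress induced by proteasome inhibitor MG132 added 30 min after compound; luciferase reporter driven by HSF1 response element in NIH3T3 cells; actives raise luminescence as potentiators of the MG132 stress response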
T1 sequence (P38532 whole entry): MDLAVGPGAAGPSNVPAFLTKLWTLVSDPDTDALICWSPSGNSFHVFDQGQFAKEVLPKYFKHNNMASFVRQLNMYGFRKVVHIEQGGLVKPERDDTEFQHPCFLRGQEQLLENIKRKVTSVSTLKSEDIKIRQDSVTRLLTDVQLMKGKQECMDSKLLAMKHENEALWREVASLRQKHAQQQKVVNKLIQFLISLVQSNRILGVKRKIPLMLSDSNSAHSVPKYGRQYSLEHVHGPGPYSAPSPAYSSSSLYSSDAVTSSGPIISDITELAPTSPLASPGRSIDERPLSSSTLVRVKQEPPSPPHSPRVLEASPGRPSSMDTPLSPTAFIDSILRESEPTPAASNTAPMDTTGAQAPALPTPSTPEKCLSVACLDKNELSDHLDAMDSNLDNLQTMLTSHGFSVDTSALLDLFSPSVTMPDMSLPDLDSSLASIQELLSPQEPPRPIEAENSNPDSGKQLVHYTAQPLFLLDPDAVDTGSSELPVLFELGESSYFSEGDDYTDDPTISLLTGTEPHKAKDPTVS

[5] = target: T2, Microphthalmia-associated transcription factor (Homo sapiens, UniProt O75030); assay: reducers of TRPM1 reporter luminescence, concentration series – cell-based, SK-MEL-5, cherry-picked, set 3, MITF inhibitor project, dose response (AID 493073); assay type: functional;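 further: SK-MEL-5 melanoma cells with luciferase driven by the MITF target TRPM1 promoter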
T2 sequence (O75030 whole entry): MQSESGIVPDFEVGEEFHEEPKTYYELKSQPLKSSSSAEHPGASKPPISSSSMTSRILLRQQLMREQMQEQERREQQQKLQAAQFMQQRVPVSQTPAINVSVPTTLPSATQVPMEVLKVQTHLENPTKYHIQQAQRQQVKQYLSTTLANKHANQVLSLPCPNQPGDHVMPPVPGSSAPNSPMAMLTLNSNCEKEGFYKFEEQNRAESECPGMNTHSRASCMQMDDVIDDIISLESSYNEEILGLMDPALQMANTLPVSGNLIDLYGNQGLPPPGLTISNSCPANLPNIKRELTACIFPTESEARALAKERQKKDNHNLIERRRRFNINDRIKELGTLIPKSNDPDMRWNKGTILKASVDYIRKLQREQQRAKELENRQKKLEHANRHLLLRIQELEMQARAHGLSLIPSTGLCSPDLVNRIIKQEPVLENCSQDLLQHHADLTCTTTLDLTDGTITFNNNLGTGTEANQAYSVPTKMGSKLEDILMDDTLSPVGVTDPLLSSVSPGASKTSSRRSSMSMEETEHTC

[6] = tested on: INS1; assay: INS-1E survival protection against cytokine death – cell-based, luminescence, retest, dose response (AID 449756); assay type: functional; settings: Rattus norvegicus;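 further: cell death triggered by IL-1 beta plus TNF-alpha plus IFN-gamma mixture; protective hits raise ATP signal compared with cytokine alone wells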
[7] = target: SWI/SNF-related matrix-associated actin-dependent regulator of chromatin subfamily A member 2 (Homo sapiens, UniProt P51531); assay: Luminescence-based cell-based high throughput dose response assay to identify activators of the function of SWI/SNF related, matrix associated, actin dependent regulator of chromatin, subfamily a, member 2 (SMARCA2, BRM).; assay type: functional
SWI/SNF-related matrix-associated actin-dependent regulator of chromatin subfamily A member 2, sequence (P51531 whole entry): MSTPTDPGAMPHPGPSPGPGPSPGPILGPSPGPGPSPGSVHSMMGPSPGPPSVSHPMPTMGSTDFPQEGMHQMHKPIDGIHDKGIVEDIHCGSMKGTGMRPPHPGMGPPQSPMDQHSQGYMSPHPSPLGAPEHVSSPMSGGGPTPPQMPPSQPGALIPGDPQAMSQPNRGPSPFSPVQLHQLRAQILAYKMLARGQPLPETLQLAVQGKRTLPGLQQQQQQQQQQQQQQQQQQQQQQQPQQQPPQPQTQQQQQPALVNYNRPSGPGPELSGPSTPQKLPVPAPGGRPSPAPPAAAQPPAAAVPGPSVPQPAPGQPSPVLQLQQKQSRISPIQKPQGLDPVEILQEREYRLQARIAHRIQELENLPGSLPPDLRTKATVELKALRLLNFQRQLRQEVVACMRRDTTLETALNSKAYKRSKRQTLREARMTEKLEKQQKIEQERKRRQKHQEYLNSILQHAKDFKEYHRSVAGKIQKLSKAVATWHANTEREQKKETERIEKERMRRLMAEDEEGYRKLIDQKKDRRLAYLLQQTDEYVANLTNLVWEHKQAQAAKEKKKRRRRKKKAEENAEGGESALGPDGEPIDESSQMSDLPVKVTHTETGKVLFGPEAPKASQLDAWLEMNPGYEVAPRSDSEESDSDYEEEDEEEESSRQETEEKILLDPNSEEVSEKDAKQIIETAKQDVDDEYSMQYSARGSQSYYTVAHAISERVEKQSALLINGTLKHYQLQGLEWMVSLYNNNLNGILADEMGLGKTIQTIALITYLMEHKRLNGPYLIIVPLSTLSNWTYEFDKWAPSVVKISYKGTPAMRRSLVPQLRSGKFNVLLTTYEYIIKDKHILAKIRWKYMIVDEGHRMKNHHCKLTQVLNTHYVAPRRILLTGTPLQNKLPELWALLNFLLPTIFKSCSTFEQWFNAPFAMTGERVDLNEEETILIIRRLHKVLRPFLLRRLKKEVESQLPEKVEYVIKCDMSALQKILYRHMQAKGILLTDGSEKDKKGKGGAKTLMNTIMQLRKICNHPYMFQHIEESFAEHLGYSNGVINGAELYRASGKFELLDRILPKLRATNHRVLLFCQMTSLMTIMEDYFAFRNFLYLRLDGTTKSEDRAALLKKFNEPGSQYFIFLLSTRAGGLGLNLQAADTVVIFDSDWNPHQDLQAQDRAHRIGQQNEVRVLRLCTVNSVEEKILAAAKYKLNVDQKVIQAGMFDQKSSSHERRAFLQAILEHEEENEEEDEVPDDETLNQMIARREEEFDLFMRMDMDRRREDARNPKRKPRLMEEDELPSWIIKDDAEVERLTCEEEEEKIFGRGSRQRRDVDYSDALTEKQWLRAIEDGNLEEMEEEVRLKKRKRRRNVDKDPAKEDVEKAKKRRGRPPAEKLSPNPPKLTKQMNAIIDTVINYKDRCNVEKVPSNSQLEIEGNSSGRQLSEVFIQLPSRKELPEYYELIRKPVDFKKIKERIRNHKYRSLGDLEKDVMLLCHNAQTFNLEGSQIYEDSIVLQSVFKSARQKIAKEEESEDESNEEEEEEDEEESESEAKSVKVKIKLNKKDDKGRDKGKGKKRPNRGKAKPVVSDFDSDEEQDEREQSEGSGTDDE

[8] = Counterscreen for activators of the function of SWI/SNF related, matrix associated, actin dependent regulator of chromatin, subfamily a, member 2 (SMARCA2, BRM): Luminescence-based cell-based high throughput dose response assay to identify non-selective compounds using the VP16 reporter assay.; assay type: functional
[9] = Luminescence-based cell-based high throughput dose response assay to identify activators of the DAF-12 from the parasite S. stercoralis (ssDAF-12).; assay type: functional
[10] = cytotoxicity in HEK293 background cells – cell-based, dry powder, set 2, counter-screen for EBV LMP1 inhibitor project, dose response (AID 624374); assay type: functional
[11] = target: Galanin receptor type 3 (Homo sapiens, UniProt O60755); assay: Fluorescence-based cell-based primary high throughput dose response assay to identify antagonists of the Galanin Receptor 3 (GalR3).; assay type: functional
Galanin receptor type 3, sequence (O60755 whole entry): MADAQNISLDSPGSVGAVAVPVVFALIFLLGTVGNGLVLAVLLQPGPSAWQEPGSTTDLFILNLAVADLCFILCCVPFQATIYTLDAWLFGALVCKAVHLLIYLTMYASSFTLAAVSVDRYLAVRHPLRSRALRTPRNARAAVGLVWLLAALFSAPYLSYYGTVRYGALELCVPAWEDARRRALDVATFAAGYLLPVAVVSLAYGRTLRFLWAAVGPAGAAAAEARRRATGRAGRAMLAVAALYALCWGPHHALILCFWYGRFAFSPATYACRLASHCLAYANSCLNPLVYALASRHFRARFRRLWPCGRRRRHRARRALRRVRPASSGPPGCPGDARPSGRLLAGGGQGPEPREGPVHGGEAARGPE

[12] = cells; assay type: functional, cell-based; settings: HEK-CNG
[13] = target: T3, COUP transcription factor 2 (Homo sapiens, UniProt P24468); assay: Luminescence-based cell-based high throughput dose response assay to identify inhibitors of COUP-TFII (NR2F2).; assay type: functional;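 further: HEK293 cells transiently cotransfected with COUP-TFII expression vector and reporter; luciferase reporter luminescence driven by COUP-TFII from the pX2-168 reporter plasmid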
T3 sequence (P24468 whole entry): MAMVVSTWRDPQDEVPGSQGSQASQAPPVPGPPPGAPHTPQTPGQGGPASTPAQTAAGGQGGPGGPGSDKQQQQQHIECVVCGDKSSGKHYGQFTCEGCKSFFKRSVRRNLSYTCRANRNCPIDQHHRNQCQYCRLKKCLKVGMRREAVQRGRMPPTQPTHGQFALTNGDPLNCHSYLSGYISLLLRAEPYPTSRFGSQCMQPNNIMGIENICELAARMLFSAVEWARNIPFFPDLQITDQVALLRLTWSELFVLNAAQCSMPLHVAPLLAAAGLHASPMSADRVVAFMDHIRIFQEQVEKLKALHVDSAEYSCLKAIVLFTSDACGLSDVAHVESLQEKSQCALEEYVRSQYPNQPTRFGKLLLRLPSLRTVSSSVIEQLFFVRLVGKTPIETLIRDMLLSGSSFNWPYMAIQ

[14] = NIH3T3 cell viability loss – ATP luminescence, mouse fibroblasts, counter-screen, dose response (AID 2010); assay type: functional, cell-based;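 further: cells exposed to compound for about 90 hours before reading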
[15] = viability loss in HeLa cells – cytotoxicity control for MgcRacGAP inhibitor project, dose response (AID 624300); assay type: functional
[16] = target: T4, Rac GTPase-activating protein 1 (Homo sapiens, UniProt Q9H0H5); assay: blockers of MgcRacGAP-driven Rac1 GTP hydrolysis – biochemical, ADP Hunter fluorescence, primary and confirmatory, confirmation (AID 624330); assay type: functional
T4 sequence (Q9H0H5 whole entry): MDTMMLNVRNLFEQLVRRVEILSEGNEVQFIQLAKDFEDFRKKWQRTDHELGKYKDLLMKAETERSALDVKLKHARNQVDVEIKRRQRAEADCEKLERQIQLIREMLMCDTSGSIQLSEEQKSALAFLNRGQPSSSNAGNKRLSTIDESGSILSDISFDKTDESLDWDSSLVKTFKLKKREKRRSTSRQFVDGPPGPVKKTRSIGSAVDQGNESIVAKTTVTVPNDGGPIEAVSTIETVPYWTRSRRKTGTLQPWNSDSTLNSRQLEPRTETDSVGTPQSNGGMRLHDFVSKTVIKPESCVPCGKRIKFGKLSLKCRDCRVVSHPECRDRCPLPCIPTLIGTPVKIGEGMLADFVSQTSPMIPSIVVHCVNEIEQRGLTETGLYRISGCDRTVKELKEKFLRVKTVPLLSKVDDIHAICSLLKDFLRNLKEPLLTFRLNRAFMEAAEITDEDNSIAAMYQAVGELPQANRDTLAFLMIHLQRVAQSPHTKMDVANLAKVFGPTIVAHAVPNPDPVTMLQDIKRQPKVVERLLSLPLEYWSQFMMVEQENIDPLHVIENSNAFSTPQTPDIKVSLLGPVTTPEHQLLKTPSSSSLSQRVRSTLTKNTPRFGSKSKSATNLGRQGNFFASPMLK

[17] = target: T5, DNA repair protein RAD52 homolog (Homo sapiens, UniProt P43351); assay type: functional, biochemical
T5 sequence (P43351 whole entry): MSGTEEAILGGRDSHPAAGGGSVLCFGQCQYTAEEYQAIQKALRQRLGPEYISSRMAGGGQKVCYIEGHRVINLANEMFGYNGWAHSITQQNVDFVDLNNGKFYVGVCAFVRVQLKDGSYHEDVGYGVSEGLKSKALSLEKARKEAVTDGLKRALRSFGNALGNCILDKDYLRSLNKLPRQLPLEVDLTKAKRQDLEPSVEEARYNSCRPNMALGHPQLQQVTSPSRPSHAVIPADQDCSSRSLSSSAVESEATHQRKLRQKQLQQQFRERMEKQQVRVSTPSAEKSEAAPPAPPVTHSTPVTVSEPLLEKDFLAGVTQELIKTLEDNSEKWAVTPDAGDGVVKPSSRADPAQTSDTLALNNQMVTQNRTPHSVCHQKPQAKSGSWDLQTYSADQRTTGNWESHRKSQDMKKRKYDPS

[18] = target: T6, Estrogen receptor (Homo sapiens, UniProt P03372);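 further: potency for inhibiting coactivator peptide recruitment to the receptor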
T6 sequence (P03372 whole entry): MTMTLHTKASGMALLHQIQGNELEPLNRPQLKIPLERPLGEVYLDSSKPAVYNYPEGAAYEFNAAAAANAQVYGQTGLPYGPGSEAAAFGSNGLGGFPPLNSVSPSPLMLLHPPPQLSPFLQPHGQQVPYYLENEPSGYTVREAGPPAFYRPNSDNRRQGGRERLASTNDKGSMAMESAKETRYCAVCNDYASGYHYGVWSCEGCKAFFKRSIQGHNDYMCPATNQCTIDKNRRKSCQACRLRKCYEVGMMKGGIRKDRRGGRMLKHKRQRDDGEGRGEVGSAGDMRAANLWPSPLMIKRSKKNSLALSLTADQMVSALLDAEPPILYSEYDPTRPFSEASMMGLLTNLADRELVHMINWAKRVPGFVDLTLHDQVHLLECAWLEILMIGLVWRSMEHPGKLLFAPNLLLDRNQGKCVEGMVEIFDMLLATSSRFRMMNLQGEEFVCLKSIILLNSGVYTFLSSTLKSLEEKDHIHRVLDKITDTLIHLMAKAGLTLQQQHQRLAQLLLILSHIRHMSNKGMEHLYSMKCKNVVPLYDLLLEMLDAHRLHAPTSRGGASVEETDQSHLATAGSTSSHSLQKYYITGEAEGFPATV

[19] = target: Long-chain-fatty-acid--AMP ligase FadD28 (Mycobacterium tuberculosis, UniProt P9WQ59); assay: Fluorescence polarization aasay to screen for inhibitors that compete for the binding of FadD28 to a bisubstrate Measured in Biochemical System Using Plate Reader - 2147-01_Inhibitor_Dose_CherryPick_Activity.; assay type: functional, Mycobacterium tuberculosis H37Rv
Long-chain-fatty-acid--AMP ligase FadD28, sequence (P9WQ59 whole entry): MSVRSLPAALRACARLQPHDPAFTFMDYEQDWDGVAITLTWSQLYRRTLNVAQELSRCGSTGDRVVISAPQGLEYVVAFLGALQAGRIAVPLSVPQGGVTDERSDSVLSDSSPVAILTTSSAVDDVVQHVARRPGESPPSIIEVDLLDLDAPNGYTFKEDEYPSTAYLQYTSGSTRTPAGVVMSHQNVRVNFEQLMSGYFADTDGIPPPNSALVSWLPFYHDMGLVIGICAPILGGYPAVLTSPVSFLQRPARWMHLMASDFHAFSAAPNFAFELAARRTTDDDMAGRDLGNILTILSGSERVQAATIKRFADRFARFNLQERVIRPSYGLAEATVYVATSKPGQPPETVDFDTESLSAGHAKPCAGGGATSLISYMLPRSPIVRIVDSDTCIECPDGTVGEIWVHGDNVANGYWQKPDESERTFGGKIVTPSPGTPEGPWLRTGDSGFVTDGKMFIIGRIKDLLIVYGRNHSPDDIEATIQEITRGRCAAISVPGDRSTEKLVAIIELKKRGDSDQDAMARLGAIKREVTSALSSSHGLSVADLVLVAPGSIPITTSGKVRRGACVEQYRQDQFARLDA

CCN(CC)CCn1nc2c3c(cccc3c1=O)-c1ccccc1-2
EC50 [1]: 41 µM (active)
EC50 [2]: 1.46 µM (active)
EC50 [3]: > 350 µM (not active)
EC50 [4]: > 260 µM (inactive)
AC50 [5]: 5.92 µM (active)
AC50 [6]: 2.4 µM (active)
EC50 [7]: > 91.2 µM (inactive)
EC50 [8]: > 91.2 µM (inactive)
IC50 [9]: > 67.5 µM (inactive)

Cc1noc(C)c1S(=O)(=O)Nc1ccc2c(c1)C(=O)N([C@H](C)CO)C[C@H](C)[C@H](CN(C)Cc1ccc(C(F)(F)F)cc1)OCCCC[C@H](C)O2
AbsAC35 [10]: 76.4 µM

COc1ccccc1CNC(=O)C[C@H]1C[C@@H]2c3cc(NC(=O)CN(C)C)ccc3O[C@@H]2[C@@H](CO)O1
AbsAC35 [10]: 106.52 µM

Nc1nc2ccccc2cc1C(=O)NCc1ccc(-c2ccccc2)cc1
IC50 [11]: 0.392 µM (active)
EC50 [12]: > 29.9 µM (inactive)
IC50 [13]: 2.01 µM (active)

COc1ccc(/C=N/Nc2cc(C)nc3c(C)cccc23)cc1
EC50 [2]: 1.14 µM (active)
EC50 [14]: > 60 µM (not active)
CC50 [15]: 31.6 µM (active)
IC50 [16]: 68.9 µM (active)
EC50 [7]: > 91.2 µM (inactive)
EC50 [8]: > 91.2 µM (inactive)
AC50 [17]: 2.28 µM (active)

CCc1cccc2c(C(=O)Cn3nnc(-c4ccc(OC)c(OC)c4)n3)c[nH]c12
IC50 [18]: 10.3 µM (active)
AC50 [19]: 40.8 µM (active)

— ChEMBL document CHEMBL1201862, “PubChem BioAssay data set” (2004)
